Results taken from US6616945B1, “Method for making a pharmaceutical formulation” (Leiras Oy, priority 1997, dated 2003).

Assay: X-ray diffraction (XRD) study of crystallinity / amorphous content
Assay type: physicochemical
Protocol: FIG. 1 presents the X-ray diffraction (XRD) patterns of three salbutamol samples.
In FIG. 1, the XRD patterns of the three salbutamol samples, which were each treated differently before analysis is shown as follows:
Also the initial mean particle size had been increased close to the upper acceptable limit.
Samples of some months ago micronized material were suspended in n-heptane and stirred 7 and 16 hours at 70° C., followed by drying.
Specific surface area and the energy for moisture absorption during transfer from 0 to 80% RH were metered: […]

change in amount of amorphous matter (micronized drug stored 10 hors at 40° C. and 50% RH): clear decrease
crystallinity by XRD (stirred 7 hours at 50° C. as n-heptane suspension): slightly less
crystallinity by XRD (stirred 7 hours at 60° C. as n-heptane suspension): practically total crystallinity
crystallinity by XRD (stirred 7 hours at 70° C. as n-heptane suspension): practically total crystallinity
Substance: salbutamol sulphate
amorphous content by XRD (untreated micronized sample): a detectable amount of the drug was amorphous
